The text below walks through data of patent US9428456B2, “1-[m-carboxamido(hetero)aryl-methyl]-heterocyclyl-carboxamide derivatives” (Actelion Pharmaceuticals Ltd., priority 2012, dated 2016).

pEC50: −log10 of the molar value.

Sequence of CXCR7 (P25106 whole entry, the tested form may be a part): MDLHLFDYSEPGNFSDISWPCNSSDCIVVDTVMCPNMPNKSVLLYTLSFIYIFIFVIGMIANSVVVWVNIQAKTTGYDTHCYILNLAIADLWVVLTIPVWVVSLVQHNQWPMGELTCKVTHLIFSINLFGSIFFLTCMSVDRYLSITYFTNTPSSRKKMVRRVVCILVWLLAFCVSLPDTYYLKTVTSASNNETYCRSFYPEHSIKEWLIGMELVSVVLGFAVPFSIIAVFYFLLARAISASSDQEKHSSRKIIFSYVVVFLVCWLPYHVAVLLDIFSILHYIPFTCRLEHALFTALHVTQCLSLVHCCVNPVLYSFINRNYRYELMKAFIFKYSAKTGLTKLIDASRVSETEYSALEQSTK
Sequence of CXCR7 (P32121 whole entry partner, the tested form may be a part): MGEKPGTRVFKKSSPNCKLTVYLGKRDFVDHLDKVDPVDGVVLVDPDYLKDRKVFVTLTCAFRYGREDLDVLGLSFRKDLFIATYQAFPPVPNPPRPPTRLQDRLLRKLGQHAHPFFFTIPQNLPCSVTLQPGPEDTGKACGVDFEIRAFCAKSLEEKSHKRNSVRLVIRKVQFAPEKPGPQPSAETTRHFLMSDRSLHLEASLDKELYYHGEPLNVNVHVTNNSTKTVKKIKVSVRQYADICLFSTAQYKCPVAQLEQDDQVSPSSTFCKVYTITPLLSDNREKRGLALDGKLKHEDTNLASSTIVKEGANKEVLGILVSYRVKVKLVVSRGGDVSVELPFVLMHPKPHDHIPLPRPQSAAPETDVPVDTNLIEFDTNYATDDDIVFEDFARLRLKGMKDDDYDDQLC

The assay concerns the target CXCR7 (Homo sapiens (Human), UniProt P25106). The assay can be described thus: PathHunter CHO-K1 CXCR7 b-arrestin assay (agonistic activity). The settings on record: PathHunter CHO-K1 CXCR7 b-arrestin cell line. The assay is classed as cell-based. The method, boiled down: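 CHO-K1 cells co-expressing ProLink-tagged CXCR7 and EA-fused β-arrestin 2 (enzyme fragment complementation); compounds added in HBSS/20 mM HEPES/0.2% BSA after 3–4 h in OPTIMEM, 90 min at 37 °C. Chemiluminescent β-gal signal read after 1 h detection at room temperature; EC50 reported as geometric mean of several measurements.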
`CC(C)(C)NC(=O)C1CCN(Cc2cccc(NC(=O)c3cnc4cc(Cl)ccc4c3)c2)CC1` [Example 1.236]: the pEC50 was 8.30.

`CCC(c1cccc(NC(=O)c2cncc(C)c2)c1)N1CCC(C(=O)NC2CCCCC2)CC1` (racemic) [Example 1.307] showed a pEC50 of 6.46.

The compound `Cn1cc(C(=O)Nc2cccc(CN3CCC(C(=O)NC4CCCCC4)CC3)c2)c2ccccc21` [Example 1.026] showed a pEC50 of 6.74.

Regarding `CN1CCN(c2ccc(C(=O)Nc3cccc(CN4CCC(C(=O)NC5CCCCC5)CC4)c3)cn2)CC1` [Example 1.072], the pEC50 is 6.33.

Compound `O=C(Nc1cccc(CN2CCC(C(=O)NC3CCCCC3)CC2)c1)c1ccsc1` [Example 1.012] gave a pEC50 of 8.40.

For the compound `O=C(CC1CCCCC1)Nc1cccc(CN2CCC(C(=O)NC3CCCCC3)CC2)c1` [Example 1.043], the negative-log EC50 (pEC50) is 8.05.

As to `COc1cc(F)cc(C(=O)Nc2cccc(CN3CCC(C(=O)NC4CCCCC4)CC3)c2)c1` [Example 1.124], the pEC50 is 8.30.

`O=C(Nc1ccc(Cl)c(CN2CCC(C(=O)NC3CCCC3)CC2)c1)c1cccc(C(F)(F)F)n1` [Example 1.218]: the pEC50 is 8.70.

`CC(C)(C)NC(=O)C1CCN(Cc2cccc(NC(=O)c3ccc(Cl)c[n+]3[O-])c2)CC1` [Example 4.024, 5-Chloro-1-oxy-pyridine-2-carboxylic acid [3-(4-tert-butylcarbamoyl-piperidin-1-ylmethyl)-phenyl]-amide] gave a pEC50 of 8.52.

`O=C(Nc1cccc(CN2CCC(C(=O)NC3CCCCC3)CC2)c1)c1cnc(Cl)c(Cl)c1` [Example 1.090]: the pEC50 was 8.22.

For the compound `O=C(Nc1cccc(CN2CCC(C(=O)NC3CCCCC3)CC2)c1)c1ccccc1` [Example 1.014], the pEC50 is 8.52.

Consider `Cc1cc(C(=O)Nc2cccc(C(C)N3CCC(C(=O)NC4CCCCC4)CC3)c2)ncn1` (racemic) [Example 1.198], for which the pEC50 was 7.04.

For `Cc1cncc(C(=O)Nc2cccc(CN3CC[C@H](C(=O)NC4CCCCC4)C[C@@H]3C)c2)c1` (racemic) [Example 2.104, rac-N-[3-((2S*,4S*)-4-Cyclohexylcarbamoyl-2-methyl-piperidin-1-ylmethyl)-phenyl]-5-methyl-nicotinamide], the pEC50 is 8.40.

In the case of `Cc1cc(C(=O)Nc2cccc(CN3CCC(C(=O)NC4CCCCC4)CC3)c2)nc(N(C)C)n1` [Example 1.088], the negative logarithm of the EC50 (pEC50) is 7.62.

In turn, `CC(C)(C)NC(=O)C1CCN(Cc2cccc(NC(=O)c3ccc(S(C)(=O)=O)cc3)c2)CC1` [Example 1.351] had a pEC50 of 6.75.

Turning to `CC(C)(C)NC(=O)C1CCN(Cc2cccc(NC(=O)CC3Cc4ccccc4C3)c2)CC1` [Example 1.272], the pEC50 was 8.70.

Take `CCC(C)(C)NC(=O)C1CCN(Cc2cccc(NC(=O)c3cccc(C(F)(F)F)[n+]3[O-])c2)CC1` [Example 1.346]: the pEC50 is 9.00.

The compound `CCC(C)(C)NC(=O)C1CCN(Cc2cccc(NC(=O)c3ccc(Cl)c[n+]3[O-])c2)CC1` [Example 4.025, 5-Chloro-1-oxy-pyridine-2-carboxylic acid {3-[4-(1,1-dimethyl-propylcarbamoyl)-piperidin-1-ylmethyl]-phenyl}amide] showed a pEC50 of 8.70.

The compound `CC(C)(C)NC(=O)C1CCN(Cc2cccc(NC(=O)c3ccc4ccccc4n3)c2)CC1` [Example 1.235] gave a pEC50 of 9.05.

In turn, `CC(C)(C)NC(=O)C1CCN(Cc2nccc(NC(=O)c3cccc(C(F)(F)F)n3)n2)CC1` [Example 1.286] had a pEC50 of 6.58.

For the compound `O=C(Nc1cccc(CN2CCC(C(=O)NC3CC3)CC2)c1)c1cncc(F)c1` [Example 1.204], the pEC50 was 7.33.

In the case of `CC(c1cccc(NC(=O)c2ccccc2)c1)N1CCC(C(=O)NC2CCCCC2)CC1` (stereo not drawn) [Example 1.165], the pEC50 is 7.64.

`O=C(Nc1cccc(CN2CCC(C(=O)NC3CCCCC3)CC2)c1)c1cn[nH]c1` [Example 1.044] had a negative logarithm of the EC50 (pEC50) of 5.91.

As for `CC(C)(C)NC(=O)C1CCN(Cc2cccc(NC(=O)Cc3ncccn3)c2)CC1` [Example 1.264], the pEC50 was 7.05.

The compound `Cc1cc(C(=O)Nc2cccc(CN3CCC(C(=O)NC(C)(C)C)CC3)c2)c[n+]([O-])c1` [Example 4.022, N-[3-(4-tert-Butylcarbamoyl-piperidin-1-ylmethyl)-phenyl]-5-methyl-1-oxy-nicotinamide] showed a pEC50 of 6.63.

For `CC(C)Cc1ccc(C(=O)Nc2cccc(CN3CCC(C(=O)NC4CCCCC4)CC3)c2)cc1` [Example 1.041], the pEC50 is 7.37.

Compound `O=C(Nc1cccc(CN2CCC(C(=O)NC3CCCCC3)CC2)c1)c1ccc(CCF)cc1` [Example 1.148] had a pEC50 of 8.30.

The compound `COc1ccc(NC(=O)c2cncc(C)c2)cc1CN1CCC(C(=O)NC(C)(C)C)CC1` [Example 1.297] showed a pEC50 of 7.01.

`CC(C)(C)NC(=O)C1CCN(Cc2cccc(NC(=O)c3ccc(F)cn3)c2)CC1` [Example 4.020, 5-Fluoro-pyridine-2-carboxylic acid [3-(4-tert-butylcarbamoyl-piperidin-1-ylmethyl)-phenyl]-amide] had a pEC50 of 9.22.

In the case of `CC(c1cccc(NC(=O)c2cccc(C#N)c2)c1)N1CCC(C(=O)NC2CCCCC2)CC1` (racemic) [Example 1.179], the pEC50 was 7.11.

In turn, `CN(C)c1cccc(C(=O)Nc2cccc(CN3CCC(C(=O)NC4CCCCC4)CC3)c2)c1` [Example 1.144] had a pEC50 of 7.14.

Compound `O=C(Nc1ccnc(CN2CCC(C(=O)NC3CCCCC3)CC2)n1)c1cccc(C(F)(F)F)n1` [Example 1.284] showed a negative logarithm of the EC50 (pEC50) of 6.65.

As for `COc1ccc(OCC(=O)Nc2cccc(C(C)N3CCC(C(=O)NC4CCCCC4)CC3)c2)cc1` (racemic) [Example 1.175], the pEC50 is 6.74.

Consider `O=C(Nc1cccc(CN2CCC(C(=O)NC3CCCCC3)CC2)c1)c1cccnc1Cl` [Example 1.066], for which the pEC50 was 7.36.

Compound `Cc1cncc(C(=O)Nc2nc(CN3CCC(C(=O)NC4CCCC4)CC3)cs2)c1` [Example 1.294] had a pEC50 of 6.39.

`Cc1cccc(C)c1C(=O)Nc1cccc(CN2CCC(C(=O)NC3CCCCC3)CC2)c1` [Example 1.108] gave a pEC50 of 6.20.

Compound `O=C(Nc1cccc(CN2CCC(C(=O)NC3CCCCC3)CC2)c1)c1cnc[nH]1` [Example 1.040] gave a pEC50 of 5.90.

The compound `Cc1cc(C(=O)Nc2cccc(CN3CCC(C(=O)NC4CCCCC4)CC3)c2)no1` [Example 1.005] had a pEC50 of 7.74.

`Cc1ccnc(C(=O)Nc2cccc(C(C)N3CCC(C(=O)NC4CCCCC4)CC3)c2)c1` (racemic) [Example 1.191] gave a pEC50 of 7.19.

On to `Cc1cc(C)nc(C(=O)Nc2cccc(CN3CCC(C(=O)NC4CCCCC4)CC3)c2)c1` [Example 1.083], for which the pEC50 is 7.96.

In the case of `CC(C)(C)NC(=O)C1CCN(Cc2cccc(NC(=O)c3cccc(C(F)(F)F)n3)c2)CC1` [Example 1.228], the pEC50 was 9.00.

`Cc1cc(Cl)ccc1C(=O)Nc1cccc(CN2CCC(C(=O)NC3CCCCC3)CC2)c1` [Example 1.121] showed a pEC50 of 8.30.

Take `COc1cncc(C(=O)Nc2cccc(CN3CCC(C(=O)NC(C)(C)C)CC3)c2)c1` [Example 4.014, N-[3-(4-tert-Butylcarbamoyl-piperidin-1-ylmethyl)-phenyl]-5-methoxy-nicotinmide]: the pEC50 is 8.10.

Turning to `Cc1ccc(C(=O)Nc2cccc(CN3CCC(C(=O)NC4CCCCC4)CC3)c2)cc1` [Example 1.101], the pEC50 is 8.40.

`CC(C)(C)CC(=O)Nc1cccc(CN2CCC(C(=O)NC3CCCCC3)CC2)c1` [Example 1.020]: the pEC50 was 7.60.

`CC(C)(C)NC(=O)C1CCN(Cc2cccc(NC(=O)c3ncc(Cl)cc3F)c2)CC1` [Example 1.340] had a pEC50 of 9.15.

As to `O=C(Cc1ccccc1Cl)Nc1cccc(CN2CCC(C(=O)NC3CCCCC3)CC2)c1` [Example 1.025], the pEC50 was 8.52.

For `Cc1ccccc1C(=O)Nc1cccc(CN2CCC(C(=O)NC3CCCCC3)CC2)c1` [Example 1.099], the pEC50 is 7.72.

The pEC50 is the negative decadic logarithm of the EC50, by convention in mol/L. High values mean a low EC50, low ones a high EC50.
